# Assay results reported in PubChem BioAssay (NCI).
#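 Interpolation was linear, between the two tested concentrations surrounding the appropriate level; five concentrations were tested over 48 hours in 96-well plates. TGI: concentration producing complete growth inhibition.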
# What was measured:
# Test in all cases: NCI anticancer screen, dose series, 48 h
# NCI-H23 lung = system: NCI-H23 lung
# DLD-1 colon = system: DLD-1 colon
# HOP-18 NSCLC = system: HOP-18 NSCLC
# OVCAR-4 ovarian = system: OVCAR-4 ovarian
# UACC-257 melanoma = system: UACC-257 melanoma
# XF 498 CNS = system: XF 498 CNS
# DMS 273 small cell lung = system: DMS 273 small cell lung
# SK-MEL-2 melanoma = system: SK-MEL-2 melanoma
# KM20L2 colon = system: KM20L2 colon
# RXF-631 renal = system: RXF-631 renal
# SNB-78 CNS = system: SNB-78 CNS
# DMS 114 small cell lung = system: DMS 114 small cell lung
# M19-MEL melanoma = system: M19-MEL melanoma
# LXFL 529 NSCLC = system: LXFL 529 NSCLC
Structure (SMILES),TGI (NCI-H23 lung) [µM],TGI (DLD-1 colon) [µM],TGI (HOP-18 NSCLC) [µM],TGI (OVCAR-4 ovarian) [µM],TGI (UACC-257 melanoma) [µM],TGI (XF 498 CNS) [µM],TGI (DMS 273 small cell lung) [µM],TGI (SK-MEL-2 melanoma) [µM],TGI (KM20L2 colon) [µM],TGI (RXF-631 renal) [µM],TGI (SNB-78 CNS) [µM],TGI (DMS 114 small cell lung) [µM],TGI (M19-MEL melanoma) [µM],TGI (LXFL 529 NSCLC) [µM]
O=C1/C(=C/c2ccccc2)CCCC/C1=C\c1ccccc1,> 100,> 100,> 100,> 100,> 100,> 100,> 100,> 100,> 100,> 100,> 100,> 100,> 100,> 100
COC(=O)/C(=C/CC(N=C(c1ccccc1)c1ccccc1)C(=O)OC)N=C(c1ccccc1)c1ccccc1 (centres undefined),> 100,> 100,,> 100,> 100,> 100,> 100,> 100,,,,82.1,> 100,> 100
CSC(=N)N1N=C2c3ccccc3CC[C@@H]2[C@@H]1c1ccccc1,35.3,31.7,47.8,49.3,35.3,30.6,28.5,29.2,25.6,,,28.7,29.4,24.2
CCOC(=O)/C=C1\Nc2ccccc2-n2nnnc21,> 100,> 100,> 100,> 100,> 100,,93.5,> 100,> 100,,> 100,> 100,> 100,> 100
CN(CCO)c1nc2c(c(=O)[nH]1)CNCC2,> 100,> 100,> 100,> 100,> 100,> 100,> 100,> 100,> 100,,> 100,> 100,> 100,> 100
COc1cc(CCCC(O)COc2cccc3c2C2(O)CCCCCC32)cc(OC)c1 (centres undefined),32.6,36.6,33.1,40.6,32.5,35.8,34.8,35.7,28.1,,43.3,23.4,32.7,33.5
Nc1ccc(C(=O)NN2C(=O)C(Cl)C2c2ccccc2O)cc1 (centres undefined),> 100,> 100,,> 100,> 100,> 100,> 100,> 100,> 100,,> 100,79.6,> 100,> 100
CCOC(=O)C1C(c2ccc([N+](=O)[O-])cc2)NC(c2ccc([N+](=O)[O-])cc2)C(C(=O)OC)S1(=O)=O (centres undefined),> 100,> 100,> 100,> 100,> 100,> 100,> 100,> 100,> 100,,> 100,> 100,> 100,> 100
